Test results as given in US20120214862A1, “MODULATION OF FACTOR 7 EXPRESSION” (ISIS Pharmaceuticals, Inc., priority 2009, published 2012).
In the oligonucleotide strings, read from the 5' end, every base follows the letter of its sugar. An asterisk marks phosphorothioate; unmarked linkages are phosphodiester. Other units and linkages are bracketed, terminal groups are in braces. A string of capitals states the bases alone. e = 2'-O-(2-methoxyethyl) (MOE); [5mC] = 5-methylcytosine; d = 2'-deoxy (DNA)

System: human Factor 7 mRNA
Assay: Antisense inhibition of human Factor 7 mRNA in HepB3 cells, lipofectin, 50 nM, real-time RT-PCR
Assay type: cell-based
Settings: for % Inhibition (human Factor 7 mRNA): 50 nM, ~24 h
Outline: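 After transfection of wells containing 4,000 cells, treatment ran for approximately 24 h. RIBOGREEN®-measured total RNA served for normalisation, and inhibition was calculated as a percentage of untreated control.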

[1] = Example 1, HepB3 cells, lipofectin, relative to untreated control cells
[2] = HepB3 cells, gapmers targeted to nucleobases 14707 to 14732 of SEQ ID NO: 1 (Table 11)
[3] = Example 4, HepB3 cells, lipofectin, relative to untreated control
[4] = HepB3 cells, gapmers (5-10-5, 3-14-3, 2-13-5 MOE) targeted to nucleobases 4868 to 4899 of SEQ ID NO: 1

Row | Substance | % Inhibition (human Factor 7 mRNA) [1] [%] | further results
1 | 407608 (antisense eT*eA*eT*eA*eG*dG*dA*d[5mC]*dT*dG*dG*dA*dG*d[5mC]*dT*eG*eG*eT*e[5mC]*e[5mC]) [compound 407608] | 13 | 
2 | 407934 (antisense e[5mC]*eT*eG*eA*eA*dG*dT*dG*dA*dA*dG*dA*dT*dG*dA*eT*eA*eA*eT*eG) [compound 407934] | 45 | 
3 | 407645 (antisense eG*eA*eG*eA*eG*d[5mC]*dT*dA*dA*dA*d[5mC]*dA*dA*d[5mC]*d[5mC]*eG*e[5mC]*e[5mC]*eT*eT) [compound 407645] | 65 | 
4 | 407653 (antisense eA*eA*eT*eA*eT*d[5mC]*dA*dT*dT*dG*dA*d[5mC]*dA*dA*dG*eG*eG*e[5mC]*eT*eG) [compound 407653] | 21 | 
5 | 407642 (antisense e[5mC]*eA*eG*e[5mC]*eA*dG*d[5mC]*d[5mC]*dT*dG*dA*dG*dG*d[5mC]*d[5mC]*eA*eG*e[5mC]*eA*eG) [compound 407642] | 78 | % Inhibition of human Factor 7 mRNA levels [2]: 63%
6 | 407598 (antisense e[5mC]*e[5mC]*eA*eT*eG*dA*dT*dG*dA*dA*dA*dT*d[5mC]*dT*d[5mC]*eT*eG*e[5mC]*eA*eG) [compound 407598] | 72 | 
7 | 422189 (antisense e[5mC]*eG*e[5mC]*dG*dG*dA*dA*dG*dA*dA*dG*dG*dG*dA*d[5mC]*dG*dG*eA*eA*eG) [compound 422189] |  | % Inhibition (human Factor 7 mRNA) [3]: 0%
8 | 422159 (antisense eA*eA*eT*dG*dG*dT*d[5mC]*dA*dG*dG*dG*d[5mC]*dT*dG*dG*dT*dT*eT*eT*eG) [compound 422159] |  | % Inhibition of human Factor 7 mRNA levels (HepB3 cells, gapmers targeted to nucleobases 11830 to 11869 of SEQ ID NO: 1 (Table 9)): 45%
9 | 422285 (antisense eG*e[5mC]*dA*d[5mC]*dA*d[5mC]*dA*dT*dG*dG*dA*dG*dT*d[5mC]*dA*eG*e[5mC]*eA*eT*e[5mC]) [compound 422285] |  | % Inhibition (human Factor 7 mRNA) (Example 6 microwalk, nucleobases 15098 to 15122 of SEQ ID NO: 1, HepB3, lipofectin): 39%
10 | 422201 (antisense eG*e[5mC]*e[5mC]*dT*dG*dA*dG*dG*d[5mC]*d[5mC]*dA*dG*d[5mC]*dA*dG*dA*dT*e[5mC]*eA*e[5mC]) [compound 422201] |  | % Inhibition of human Factor 7 mRNA levels [2]: 71%
11 | 407661 (antisense eT*eT*eT*eA*e[5mC]*dA*dA*dG*dA*dG*d[5mC]*dA*dG*dG*dG*eT*eG*e[5mC]*e[5mC]*eT) [compound 407661] | 47 | 
12 | 416524 (antisense eT*eA*eA*eT*eT*dT*dA*dA*dT*dA*dT*dT*d[5mC]*dA*dG*eA*eT*eG*eG*eT) [compound 416524] |  | % Inhibition of human Factor 7 mRNA levels (HepB3 cells, lipofectin, 50 nM antisense oligonucleotide, approximately 24 hours, primer probe set RTS 2927, relative to untreated control): 0%
13 | 407632 (antisense eT*e[5mC]*e[5mC]*eG*eT*dT*d[5mC]*dG*dG*dG*d[5mC]*dA*dG*dG*d[5mC]*eA*eG*eA*eG*eG) [compound 407632] | 46 | 
14 | 407894 (antisense eG*eT*eT*e[5mC]*e[5mC]*dG*dG*d[5mC]*d[5mC]*d[5mC]*dT*d[5mC]*dG*dA*dA*eG*eG*e[5mC]*eA*eG) [compound 407894] | 77 | 
15 | 422297 (antisense e[5mC]*e[5mC]*d[5mC]*dG*dA*dG*dT*dT*d[5mC]*dT*dG*d[5mC]*dA*dG*dG*eA*eG*e[5mC]*eG*eG) [compound 422297] |  | % Inhibition of human Factor 7 mRNA levels [4]: 63%
16 | 407945 (antisense eA*eA*eT*e[5mC]*eA*dT*dG*dG*dG*d[5mC]*dA*dA*d[5mC]*d[5mC]*d[5mC]*eA*eG*eT*eG*eG) [compound 407945] | 56 | 
17 | 422146 (antisense eA*eG*e[5mC]*e[5mC]*e[5mC]*dG*dA*dG*dT*dT*d[5mC]*dT*dG*d[5mC]*dA*eG*eG*eA*eG*e[5mC]) [compound 422146] |  | % Inhibition of human Factor 7 mRNA levels [4]: 58%
18 | 422195 (antisense eA*e[5mC]*eT*dG*dA*dG*d[5mC]*dG*d[5mC]*dG*dG*dA*dA*dG*dA*dA*dG*eG*eG*eA) [compound 422195] |  | % Inhibition (human Factor 7 mRNA) [3]: 37%
19 | 407959 (antisense eG*e[5mC]*eA*eG*eG*dG*dA*dT*dG*dG*d[5mC]*dA*dT*d[5mC]*dG*eA*eG*eT*e[5mC]*e[5mC]) [compound 407959] | 0 | 
